From ChEMBL document CHEMBL3580621, “The Hippo Pathway and YAP/TAZ-TEAD Protein-Protein Interaction as Targets for Regenerative Medicine and Cancer Treatment” (J Med Chem, 2015)

Species on record: Homo sapiens
Test: Inhibition of HA-tagged YAP/Gal4-tagged TEAD (unknown origin) interaction at 2.5 uM by Coimmunoprecipitation assay

inhibition: > 50%
Sequence: VERTEPORFIN
